{
  "source": "ChEMBL document CHEMBL3734736",
  "about": "“A selective delta opioid receptor antagonist based on a stilbene core” (Bioorg Med Chem Lett, 2015)",
  "key": {"CHO [1]": {"system": "CHO", "experiment": "Selectivity ratio, ratio of Ke for human kappa opioid receptor over-expressed in CHO cell membrane to Ke for human delta opioid receptor over-expressed in CHO cell membrane", "format": "cell-based"}, "[2]": {"target": "Kappa-type opioid receptor (Homo sapiens) (UniProt P41145)", "sequence (P41145 whole entry)": "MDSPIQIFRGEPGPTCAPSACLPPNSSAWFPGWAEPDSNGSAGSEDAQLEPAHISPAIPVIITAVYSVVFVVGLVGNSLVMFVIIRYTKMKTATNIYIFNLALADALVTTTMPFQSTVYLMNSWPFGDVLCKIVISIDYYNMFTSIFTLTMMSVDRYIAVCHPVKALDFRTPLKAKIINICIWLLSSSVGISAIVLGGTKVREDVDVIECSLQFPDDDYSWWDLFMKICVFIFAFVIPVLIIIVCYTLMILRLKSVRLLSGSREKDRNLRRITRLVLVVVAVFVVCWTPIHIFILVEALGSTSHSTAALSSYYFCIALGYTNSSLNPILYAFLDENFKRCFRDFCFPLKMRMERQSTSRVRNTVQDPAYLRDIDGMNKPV", "experiment": "Agonist activity at human kappa opioid receptor over-expressed in CHO cell membrane after 1 hr by [35S]GTPgammaS binding assay", "format": "functional, cell membranes"}, "[3]": {"target": "Mu-type opioid receptor (Homo sapiens) (UniProt P35372)", "sequence (P35372 whole entry)": "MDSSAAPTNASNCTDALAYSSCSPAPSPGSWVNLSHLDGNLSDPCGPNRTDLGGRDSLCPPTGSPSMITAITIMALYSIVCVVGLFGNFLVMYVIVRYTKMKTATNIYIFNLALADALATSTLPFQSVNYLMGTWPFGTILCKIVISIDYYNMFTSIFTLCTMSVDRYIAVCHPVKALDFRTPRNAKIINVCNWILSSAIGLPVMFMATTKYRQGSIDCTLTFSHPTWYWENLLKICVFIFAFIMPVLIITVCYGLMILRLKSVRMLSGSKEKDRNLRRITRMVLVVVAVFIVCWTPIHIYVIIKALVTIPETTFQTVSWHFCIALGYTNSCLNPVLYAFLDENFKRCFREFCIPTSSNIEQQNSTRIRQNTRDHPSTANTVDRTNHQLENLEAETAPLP", "experiment": "Antagonist activity at human mu opioid receptor over-expressed in CHO cell membrane assessed as inhibition of DAMGO-induced [35S]GTPgammaS binding at 10 uM after 1 hr by scintillation counting method", "format": "functional, cell membranes"}, "[4]": {"target": "T1, Delta-type opioid receptor (Homo sapiens, UniProt P41143)", "T1 sequence (P41143 whole entry)": "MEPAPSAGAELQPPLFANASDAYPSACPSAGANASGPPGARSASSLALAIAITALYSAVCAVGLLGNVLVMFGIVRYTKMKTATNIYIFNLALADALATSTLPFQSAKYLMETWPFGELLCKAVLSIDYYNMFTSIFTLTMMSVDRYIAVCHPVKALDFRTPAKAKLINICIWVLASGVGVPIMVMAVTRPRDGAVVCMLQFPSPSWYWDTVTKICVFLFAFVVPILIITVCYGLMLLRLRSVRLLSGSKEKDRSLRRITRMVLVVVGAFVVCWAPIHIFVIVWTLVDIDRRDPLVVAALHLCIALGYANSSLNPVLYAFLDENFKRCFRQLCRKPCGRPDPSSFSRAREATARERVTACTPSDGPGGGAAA", "experiment": "Agonist activity at human delta opioid receptor over-expressed in CHO cell membrane after 1 hr by [35S]GTPgammaS binding assay", "format": "functional, cell membranes"}, "[5]": {"target": "Mu-type opioid receptor (Homo sapiens) (UniProt P35372)", "experiment": "Agonist activity at human mu opioid receptor over-expressed in CHO cell membrane after 1 hr by [35S]GTPgammaS binding assay", "format": "functional, cell membranes"}, "[6]": {"target": "T1, Delta-type opioid receptor", "experiment": "Antagonist activity at human delta opioid receptor over-expressed in CHO cell membrane assessed as inhibition of DPDPE-induced [35S]GTPgammaS binding at 10 uM after 1 hr by scintillation counting method", "format": "functional, cell membranes"}, "[7]": {"target": "Kappa-type opioid receptor (Homo sapiens) (UniProt P41145)", "experiment": "Antagonist activity at human kappa opioid receptor over-expressed in CHO cell membrane assessed as inhibition of U69,593-induced [35S]GTPgammaS binding at 10 uM after 1 hr by scintillation counting method", "format": "functional, cell membranes"}, "CHO [8]": {"system": "CHO", "experiment": "Selectivity ratio, ratio of Ke for human mu opioid receptor over-expressed in CHO cell membrane to Ke for human delta opioid receptor over-expressed in CHO cell membrane", "format": "cell-based"}},
  "note": "Calls of active or inactive are those of the source. No cut-off for these calls is given here.",
  "data": [
    {"smiles": "COc1cc(/C=C/c2ccc(O)c(O)c2CC=C(C)C)c(C/C=C(\\C)CCC=C(C)C)c(OC)c1", "values": [
      {"measurement": "Ratio Ke", "setting": "CHO [1]", "result": "> 400"},
      {"measurement": "Activity", "setting": "[2]", "result": "inactive"},
      {"measurement": "Ke", "setting": "[3]", "result": "> 10", "unit": "µM"},
      {"measurement": "EC50", "setting": "[4]", "result": 6.6, "unit": "µM"},
      {"measurement": "Activity", "setting": "[5]", "result": "inactive"},
      {"measurement": "Ke", "setting": "[6]", "result": 0.025, "unit": "µM"},
      {"measurement": "Ke", "setting": "[7]", "result": "> 10", "unit": "µM"},
      {"measurement": "Ratio Ke", "setting": "CHO [8]", "result": "> 400"}
    ]}
  ]
}
